Measurements from US11072612B2, “NLRP3 modulators” (INNATE TUMOR IMMUNITY, INC., priority 2016, dated 2021).

Columns and labels:
Assay type in all cases: cell-based
hNLRP3 = target: T1, hNLRP3 (Homo sapiens, UniProt Q96P20); test: hNLRP3 agonist assay: IL-1β production in PMA-differentiated THP-1 cells (ELISA); details: Table 2, 4 hours, IL-1β by ELISA
T1 construct: THP-1 cells were purchased from the American Type Culture Collection; host or cells: THP-1 cells, PMA-differentiated
Method: THP-1 cells were purchased from the American Type Culture Collection and sub-cultured according to instructions from the supplier. Prior to experiments, cells were cultured in RPMI 1640 containing 10% heat inactivated FBS, penicillin (100 units/ml) and streptomycin (100 μg/ml), and maintained in log phase prior to experimental setup. Prior to the experiment THP-1 were treated with PMA (Phorbol 12-myristate 13-acetate) (10 μg/ml) for 24 hours. The day of the experiment the media was removed and attaching cells were treated with trypsin for 2 minutes, cells were then collected, washed with PBS (phosphate buffer saline), spin down, resuspended in 2% heat inactivated FBS with RPMI at a concentration of 1×10^6 cells/ml, and 100 μl was plated in a 96 well plate. Cells were incubated with compounds for 4 hours. Cell free supernatant was collected and the production of IL-1β was evaluated by ELISA. Compounds were dissolved in dimethyl sulfoxide (DMSO) and added to the culture medium to achieve desired concentration (e.g. 100, 30, 10, 3, 1, 0.3 or 0.1 μM). A vehicle only control was run concurrently with each experiment. Final DMSO concentration was 1%.

TLR7 = target: T2, TLR7 (Homo sapiens, UniProt Q9NYK1); test: TLR7 EC50 assay; details: Table 2
T2 sequence (Q9NYK1 27-1049): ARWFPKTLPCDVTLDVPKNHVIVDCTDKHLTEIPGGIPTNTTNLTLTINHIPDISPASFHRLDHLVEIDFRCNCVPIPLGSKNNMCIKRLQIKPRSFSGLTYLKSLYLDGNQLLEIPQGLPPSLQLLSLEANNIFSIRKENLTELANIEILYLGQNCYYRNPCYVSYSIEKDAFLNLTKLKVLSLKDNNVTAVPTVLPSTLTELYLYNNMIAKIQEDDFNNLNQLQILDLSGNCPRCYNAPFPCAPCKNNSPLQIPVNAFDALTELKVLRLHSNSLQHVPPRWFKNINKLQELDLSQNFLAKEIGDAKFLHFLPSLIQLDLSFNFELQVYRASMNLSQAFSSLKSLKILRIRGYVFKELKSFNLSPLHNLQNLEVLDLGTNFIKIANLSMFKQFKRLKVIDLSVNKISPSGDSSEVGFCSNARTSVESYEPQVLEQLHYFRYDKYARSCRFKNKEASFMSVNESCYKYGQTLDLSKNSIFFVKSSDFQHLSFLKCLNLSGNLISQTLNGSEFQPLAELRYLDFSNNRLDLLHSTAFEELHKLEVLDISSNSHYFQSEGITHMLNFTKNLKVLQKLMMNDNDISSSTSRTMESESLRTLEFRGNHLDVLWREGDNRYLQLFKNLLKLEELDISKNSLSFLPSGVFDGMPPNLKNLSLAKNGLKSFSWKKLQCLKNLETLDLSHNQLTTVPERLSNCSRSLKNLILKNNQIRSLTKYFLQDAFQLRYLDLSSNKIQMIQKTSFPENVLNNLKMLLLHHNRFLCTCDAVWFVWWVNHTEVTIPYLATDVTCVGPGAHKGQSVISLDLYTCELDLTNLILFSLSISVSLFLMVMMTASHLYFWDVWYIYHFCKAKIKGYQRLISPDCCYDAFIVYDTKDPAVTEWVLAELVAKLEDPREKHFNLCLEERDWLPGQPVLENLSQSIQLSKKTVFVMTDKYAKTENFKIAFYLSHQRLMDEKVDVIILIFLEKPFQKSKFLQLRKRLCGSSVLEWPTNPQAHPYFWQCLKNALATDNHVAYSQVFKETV

TLR8 = target: T3, TLR8 (Homo sapiens, UniProt Q9NR97); test: TLR8 EC50 assay; details: Table 2
T3 sequence (Q9NR97 27-1041): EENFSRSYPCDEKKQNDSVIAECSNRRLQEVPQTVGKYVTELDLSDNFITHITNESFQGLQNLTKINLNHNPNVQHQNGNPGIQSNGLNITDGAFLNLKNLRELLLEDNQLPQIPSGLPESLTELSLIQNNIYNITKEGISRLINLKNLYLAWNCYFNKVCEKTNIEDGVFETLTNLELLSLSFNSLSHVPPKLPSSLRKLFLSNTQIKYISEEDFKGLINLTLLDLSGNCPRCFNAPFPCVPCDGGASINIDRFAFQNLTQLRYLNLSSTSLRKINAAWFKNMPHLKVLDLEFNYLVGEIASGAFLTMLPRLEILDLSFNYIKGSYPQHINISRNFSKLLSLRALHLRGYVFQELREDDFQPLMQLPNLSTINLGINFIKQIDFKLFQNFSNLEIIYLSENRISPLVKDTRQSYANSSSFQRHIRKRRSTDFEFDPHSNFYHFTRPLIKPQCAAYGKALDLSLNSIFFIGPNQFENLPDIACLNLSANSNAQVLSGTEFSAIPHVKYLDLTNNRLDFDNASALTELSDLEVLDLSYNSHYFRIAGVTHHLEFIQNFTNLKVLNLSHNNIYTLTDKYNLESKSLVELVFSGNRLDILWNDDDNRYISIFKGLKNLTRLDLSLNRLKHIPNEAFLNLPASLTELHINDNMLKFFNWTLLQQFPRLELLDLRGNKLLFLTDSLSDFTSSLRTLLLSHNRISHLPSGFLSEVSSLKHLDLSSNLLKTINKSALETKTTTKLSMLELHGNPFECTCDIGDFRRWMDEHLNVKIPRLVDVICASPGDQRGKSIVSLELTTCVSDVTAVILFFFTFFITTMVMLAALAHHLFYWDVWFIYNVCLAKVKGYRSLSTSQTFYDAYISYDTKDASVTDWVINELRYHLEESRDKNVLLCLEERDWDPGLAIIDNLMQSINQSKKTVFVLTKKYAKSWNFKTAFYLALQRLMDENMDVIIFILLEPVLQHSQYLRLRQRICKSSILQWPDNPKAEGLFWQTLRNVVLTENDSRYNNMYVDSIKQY

T1 sequence (Q96P20 whole entry): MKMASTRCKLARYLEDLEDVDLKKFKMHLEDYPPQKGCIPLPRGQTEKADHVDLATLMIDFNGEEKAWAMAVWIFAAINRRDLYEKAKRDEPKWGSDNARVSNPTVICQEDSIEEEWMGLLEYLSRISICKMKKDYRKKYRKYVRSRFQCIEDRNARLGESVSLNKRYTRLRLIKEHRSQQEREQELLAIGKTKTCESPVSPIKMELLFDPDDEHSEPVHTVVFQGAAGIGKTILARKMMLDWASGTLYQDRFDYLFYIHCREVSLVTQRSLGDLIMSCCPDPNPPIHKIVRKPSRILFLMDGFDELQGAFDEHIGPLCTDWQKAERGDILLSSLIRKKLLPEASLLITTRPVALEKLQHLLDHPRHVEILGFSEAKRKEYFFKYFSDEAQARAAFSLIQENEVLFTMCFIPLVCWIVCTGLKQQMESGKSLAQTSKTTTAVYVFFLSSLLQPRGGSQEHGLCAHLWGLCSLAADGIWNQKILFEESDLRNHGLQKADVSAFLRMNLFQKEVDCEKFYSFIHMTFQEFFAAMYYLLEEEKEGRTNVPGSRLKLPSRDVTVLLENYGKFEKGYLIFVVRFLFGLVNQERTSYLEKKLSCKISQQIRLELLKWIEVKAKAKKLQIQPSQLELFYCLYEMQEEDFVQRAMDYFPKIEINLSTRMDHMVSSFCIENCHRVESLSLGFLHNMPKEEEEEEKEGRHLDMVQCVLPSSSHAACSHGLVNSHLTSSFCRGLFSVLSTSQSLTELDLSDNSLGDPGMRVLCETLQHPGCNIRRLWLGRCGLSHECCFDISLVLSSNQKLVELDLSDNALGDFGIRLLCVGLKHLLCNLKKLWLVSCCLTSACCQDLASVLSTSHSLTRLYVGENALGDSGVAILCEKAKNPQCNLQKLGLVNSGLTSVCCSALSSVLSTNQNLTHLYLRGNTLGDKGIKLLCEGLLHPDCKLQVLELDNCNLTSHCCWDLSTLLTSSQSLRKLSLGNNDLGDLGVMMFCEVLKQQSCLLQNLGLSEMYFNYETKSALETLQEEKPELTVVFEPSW

Compound | EC50 (hNLRP3) | EC50 (TLR7) | EC50 (TLR8)
Nc1nc2cc(-c3ccccc3)ccc2c2[nH]c(CCCO)nc12 [Compound 145, 3-(4-amino-7-phenyl-1H-imidazo[4,5-c]quinolin-2-yl)propan-1-ol] | ≤ 1 µM | > 100 µM | > 100 µM
Nc1nc2cc(-c3cccnc3)ccc2c2[nH]c(CCCOCc3ccccc3)nc12 [Compound 146, 2-(3-phenylmethoxypropyl)-7-pyridin-3-yl-1H-imidazo[4,5-c]quinolin-4-amine] | 20 to 100 µM | > 100 µM | > 100 µM
Nc1nc2cc(-c3cccnc3)ccc2c2[nH]c(CCCO)nc12 [Compound 147, 3-(4-amino-7-pyridin-3-yl-1H-imidazo[4,5-c]quinolin-2-yl)propan-1-ol] | 1 to 20 µM | > 100 µM | > 100 µM
Nc1nc2cc(-c3ccncc3)ccc2c2[nH]c(CCCOCc3ccccc3)nc12 [Compound 148, 2-(3-phenylmethoxypropyl)-7-pyridin-4-yl-1H-imidazo[4,5-c]quinolin-4-amine] | 20 to 100 µM | > 100 µM | > 100 µM
Cc1cc(-c2ccc3c(c2)nc(N)c2nc(CCCOCc4ccccc4)[nH]c23)n(C)n1 [Compound 150, 7-(2,5-dimethylpyrazol-3-yl)-2-(3-phenylmethoxypropyl)-1H-imidazo[4,5-c]quinolin-4-amine] | > 100 µM | > 100 µM | > 100 µM
CCCn1cc(-c2ccc3c(c2)nc(N)c2nc(CCCOCc4ccccc4)[nH]c23)cn1 [Compound 152, 2-(3-phenylmethoxypropyl)-7-(1-propylpyrazol-4-yl)-1H-imidazo[4,5-c]quinolin-4-amine] | 20 to 100 µM | > 100 µM | > 100 µM
CCCn1cc(-c2ccc3c(c2)nc(N)c2nc(CCCO)[nH]c23)cn1 [Compound 153, 3-[4-amino-7-(1-propylpyrazol-4-yl)-1H-imidazo[4,5-c]quinolin-2-yl]propan-1-ol] | 1 to 20 µM | > 100 µM | > 100 µM
Cc1ncc(-c2ccc3c(c2)nc(N)c2nc(CCCOCc4ccccc4)[nH]c23)cn1 [Compound 154, 7-(2-methylpyrimidin-5-yl)-2-(3-phenylmethoxypropyl)-1H-imidazo[4,5-c]quinolin-4-amine] | 1 to 20 µM | > 100 µM | > 100 µM
Cc1ncc(-c2ccc3c(c2)nc(N)c2nc(CCCO)[nH]c23)cn1 [Compound 155, 3-[4-amino-7-(2-methylpyrimidin-5-yl)-1H-imidazo[4,5-c]quinolin-2-yl]propan-1-ol] | 1 to 20 µM | > 100 µM | > 100 µM
CN(C)c1ncc(-c2ccc3c(c2)nc(N)c2nc(CCCO)[nH]c23)cn1 [Compound 156, 3-[4-amino-7-[2-(dimethylamino)pyrimidin-5-yl]-1H-imidazo[4,5-c]quinolin-2-yl]propan-1-ol] | > 100 µM | > 100 µM | > 100 µM
Nc1nc2cc(-c3cccnc3F)ccc2c2[nH]c(CCCOCc3ccccc3)nc12 [Compound 157, 7-(2-fluoropyridin-3-yl)-2-(3-phenylmethoxypropyl)-1H-imidazo[4,5-c]quinolin-4-amine] | > 100 µM | > 100 µM | > 100 µM
Nc1nc2cc(-c3cccnc3F)ccc2c2[nH]c(CCCO)nc12 [Compound 158, 3-[4-amino-7-(2-fluoropyridin-3-yl)-1H-imidazo[4,5-c]quinolin-2-yl]propan-1-ol] | 1 to 20 µM | > 100 µM | > 100 µM
Nc1nc2cc(Oc3ccccc3)ccc2c2[nH]c(CCCO)nc12 [Compound 163, 3-(4-amino-7-phenoxy-1H-imidazo[4,5-c]quinolin-2-yl)propan-1-ol] | 20 to 100 µM | > 100 µM | > 100 µM

Second part, the compound after the results:

EC50 (hNLRP3) | EC50 (TLR7) | EC50 (TLR8) | Compound
1 to 20 µM | > 100 µM | > 100 µM | Nc1nc2cc(-c3ccncc3)ccc2c2[nH]c(CCCO)nc12 [Compound 149]
1 to 20 µM | > 100 µM | > 100 µM | Cc1cc(-c2ccc3c(c2)nc(N)c2nc(CCCO)[nH]c23)n(C)n1 [Compound 151, 3-[4-amino-7-(2,5-dimethylpyrazol-3-yl)-1H-imidazo[4,5-c]quinolin-2-yl]propan-1-ol]
1 to 20 µM | 20 to 100 µM | > 100 µM | CC(C)c1ccc2c(c1)nc(N)c1nc(CCCO)[nH]c12 [Compound 159, 3-(4-amino-7-propan-2-yl-1H-imidazo[4,5-c]quinolin-2-yl)propan-1-ol]
≤ 1 µM | 20 to 100 µM | > 100 µM | CCCc1ccc2c(c1)nc(N)c1nc(CCCO)[nH]c12 [Compound 160, 3-(4-amino-7-propyl-1H-imidazo[4,5-c]quinolin-2-yl)propan-1-ol]
≤ 1 µM | > 100 µM | > 100 µM | Nc1nc2cc(C3CCCC3)ccc2c2[nH]c(CCCO)nc12 [Compound 161, 3-(4-amino-7-cyclopentyl-1H-imidazo[4,5-c]quinolin-2-yl)propan-1-ol]
1 to 20 µM | 20 to 100 µM | 20 to 100 µM | CCc1ccc2c(c1)nc(N)c1nc(CCCO)[nH]c12 [Compound 162, 3-(4-amino-7-ethyl-1H-imidazo[4,5-c]quinolin-2-yl)propan-1-ol]
20 to 100 µM | 20 to 100 µM | 20 to 100 µM | Nc1nc2cc(Cl)ccc2c2[nH]c(CCCO)nc12 [Compound 165, 3-(4-amino-7-chloro-1H-imidazo[4,5-c]quinolin-2-yl)propan-1-ol]
> 100 µM | > 100 µM | > 100 µM | Nc1nc2cc(N3CCCC3)ccc2c2[nH]c(CCCO)nc12 [Compound 166, 3-(4-amino-7-pyrrolidin-1-yl-1H-imidazo[4,5-c]quinolin-2-yl)propan-1-ol]
> 100 µM | > 100 µM | > 100 µM | Nc1nc2cc(N3CCCCC3)ccc2c2[nH]c(CCCO)nc12 [Compound 167, 3-(4-amino-7-piperidin-1-yl-1H-imidazo[4,5-c]quinolin-2-yl)propan-1-ol]
